How the values were obtained:
[1] = Cytotoxicity against mouse BV2 cells assessed as viable cells at 20 uM by MTT assay; type: cell-based, BV-2; conditions: read-out: Activity
BV-2 = experiment: Anti-neuroinflammatory activity in mouse BV2 cells assessed as inhibition of LPS-induced NO production after 24 hrs by Griess assay; type: functional, cell-based; conditions: BV-2, 24 h
[2] = Cytotoxicity against human SKOV3 cells after 48 hrs by SRB assay; type: functional, cell-based; conditions: SK-OV-3, 48 h
[3] = Cytotoxicity against human HCT15 cells after 48 hrs by SRB assay; type: functional, cell-based; conditions: HCT-15, 48 h
C6 = experiment: Stimulation of NGF secretion in rat C6 cells at 20 uM after 24 hrs by ELISA; type: functional
[4] = Cytotoxicity against rat C6 cells assessed as viable cells at 20 uM by MTT assay; type: cell-based; conditions: read-out: Activity
A549 = experiment: Cytotoxicity against human A549 cells after 48 hrs by SRB assay; type: functional, cell-based; conditions: A549, 48 h
SK-MEL-2 = experiment: Cytotoxicity against human SK-MEL-2 cells after 48 hrs by SRB assay; type: functional, cell-based; conditions: SK-MEL-2, 48 h

Row | Compound | viability at 20 µM [1] [%] | IC50 (BV-2) [µM] | IC50 [2] [µM] | IC50 [3] [µM] | Activity (C6) [%] | viability at 20 µM [4] [%] | IC50 (A549) [µM] | IC50 (SK-MEL-2) [µM]
1 | CNC(=N)NCCC[C@H](N)C(=O)O [TILARGININE] | 100 | 20.5 |  |  |  |  |  | 
2 | COc1ccc(-c2cc(OC)c(O)c(OC)c2)c(OC)c1 | 129 | 39.6 | 7.84 | 7.81 | 164.56 | 119 | 5.18 | 6.94
3 | COc1cc(-c2ccccc2)cc(OC)c1O [AUCUPARIN] | 126 | 50.1 |  |  | 125.76 | 117 |  | 
4 | CCCCC/C=C/C(=O)CCc1ccc(O)c(OC)c1 [SHOGAOL] |  |  |  |  | 158.18 | 110 |  | 
5 | COc1ccccc1-c1cc(OC)c(O)c(OC)c1 | 138 | 28.1 |  |  | 152.86 | 118 |  | 
6 | COc1ccc2c(oc3c(OC)c(OC)c(O)cc32)c1O | 198 | 15.8 | 19.3 | > 30 | 186.49 | 113 | > 30 | 23.5
7 | COc1cc(-c2ccccc2O)cc(OC)c1O | 118 | 38.1 |  |  | 137.33 | 119 |  | 
8 | COc1ccc(-c2cc(OC)c(O)c(Oc3c(OC)cc([C@@H](O)[C@H](O)CO)cc3OC)c2)c(OC)c1 | 132 | 48.4 | 29.5 | 27.3 | 125.81 | 115 | 12.7 | 16.3
9 | COc1cc([C@@H]2c3cc4c(cc3[C@@H](O[C@@H]3O[C@@H]5CO[C@@H](C)O[C@H]5[C@H](O)[C@H]3O)[C@H]3COC(=O)[C@H]23)OCO4)cc(OC)c1O [ETOPOSIDE] |  |  | 1.96 | 2.95 |  |  | 1.74 | 1.33
10 | COc1cc(-c2ccccc2)cc(Oc2c(OC)cc([C@@H](O)[C@H](O)CO)cc2OC)c1O [BERBEKORIN A] | 116 | 49.3 | 4.03 | 1.96 | 155.02 | 119 | 4.12 | 4.49

Source: ChEMBL document CHEMBL3745669, “Isolation of bioactive biphenyl compounds from the twigs of Chaenomeles sinensis” (Bioorg Med Chem Lett, 2016)
